Values of other authors in patent US20100120907A1, “DERIVATIVES OF AMYRIS ALCOHOLS AND EUDESMOL FOR TREATING COLD SORES AND HERPES” (priority 2007, published 2010).

What was measured:
skin papillomas = details: DMBA-initiated, TPA-promoted, mice
[1] = tested on: ornithine decarboxylase (ODC); details: mice
cold sores = details: topical cream
neurogenic inflammation = details: following electrical stimulation of rat trigeminal ganglion
[2] = biological target: omega-agatoxin IVA-sensitive (P/Q-type) Ca^2+ channel (Rattus norvegicus, UniProt P54282)
[3] = tested on: extracellular signal-regulated kinase (ERK) ½; details: 100 microM
[4] = biological target: nicotinic ACh receptor channel (Homo sapiens, UniProt P02708+P11230+Q04844+Q07001)
angiogenesis = details: mice
Na^+, K(+)-ATPase = details: among the various kinds of phosphatases examined
[5] = tested on: human umbilical vein endothelial cells (HUVEC)
[6] = tested on: porcine brain microvascular endothelial cells; details: 50-100 microM

Chain of nicotinic ACh receptor channel (P02708 21-457): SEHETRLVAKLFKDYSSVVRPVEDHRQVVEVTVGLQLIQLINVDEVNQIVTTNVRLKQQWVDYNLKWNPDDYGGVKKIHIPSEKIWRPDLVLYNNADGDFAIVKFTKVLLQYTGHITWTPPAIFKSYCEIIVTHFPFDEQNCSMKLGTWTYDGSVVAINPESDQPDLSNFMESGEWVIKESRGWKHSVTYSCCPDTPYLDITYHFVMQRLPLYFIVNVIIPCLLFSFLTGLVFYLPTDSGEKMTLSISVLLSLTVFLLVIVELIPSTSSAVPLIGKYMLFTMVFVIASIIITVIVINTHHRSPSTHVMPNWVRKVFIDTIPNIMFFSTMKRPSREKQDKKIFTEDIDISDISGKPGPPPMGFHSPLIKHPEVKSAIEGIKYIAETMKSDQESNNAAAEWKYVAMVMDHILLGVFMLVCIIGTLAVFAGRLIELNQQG
Chain of nicotinic ACh receptor channel (P11230 24-501): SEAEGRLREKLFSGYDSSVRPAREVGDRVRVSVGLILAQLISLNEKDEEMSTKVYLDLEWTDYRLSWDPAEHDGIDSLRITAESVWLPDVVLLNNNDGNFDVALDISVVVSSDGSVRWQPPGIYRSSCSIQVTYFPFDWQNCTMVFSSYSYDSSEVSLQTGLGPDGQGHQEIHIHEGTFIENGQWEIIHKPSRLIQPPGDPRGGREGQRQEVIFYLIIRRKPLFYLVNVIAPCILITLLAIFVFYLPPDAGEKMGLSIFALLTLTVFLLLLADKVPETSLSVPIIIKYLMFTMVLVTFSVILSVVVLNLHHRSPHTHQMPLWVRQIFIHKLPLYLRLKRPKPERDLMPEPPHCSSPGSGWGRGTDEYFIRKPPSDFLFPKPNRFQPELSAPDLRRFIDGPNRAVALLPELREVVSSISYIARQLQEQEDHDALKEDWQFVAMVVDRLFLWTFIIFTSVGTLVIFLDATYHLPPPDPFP
Chain of nicotinic ACh receptor channel (Q07001 22-517): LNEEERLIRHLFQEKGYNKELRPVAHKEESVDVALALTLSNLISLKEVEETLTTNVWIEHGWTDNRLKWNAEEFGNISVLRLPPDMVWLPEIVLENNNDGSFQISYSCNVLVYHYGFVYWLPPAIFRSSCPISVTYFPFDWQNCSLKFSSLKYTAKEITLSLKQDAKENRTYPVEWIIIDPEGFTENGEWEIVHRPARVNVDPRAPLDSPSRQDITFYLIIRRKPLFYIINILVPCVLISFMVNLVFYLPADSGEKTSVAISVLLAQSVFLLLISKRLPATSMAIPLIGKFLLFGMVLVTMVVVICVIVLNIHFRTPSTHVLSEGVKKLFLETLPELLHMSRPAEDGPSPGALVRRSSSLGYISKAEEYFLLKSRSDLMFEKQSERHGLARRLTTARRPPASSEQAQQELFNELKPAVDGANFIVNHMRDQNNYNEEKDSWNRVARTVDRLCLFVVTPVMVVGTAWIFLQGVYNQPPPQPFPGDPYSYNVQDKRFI
Chain of nicotinic ACh receptor channel (Q04844 21-493): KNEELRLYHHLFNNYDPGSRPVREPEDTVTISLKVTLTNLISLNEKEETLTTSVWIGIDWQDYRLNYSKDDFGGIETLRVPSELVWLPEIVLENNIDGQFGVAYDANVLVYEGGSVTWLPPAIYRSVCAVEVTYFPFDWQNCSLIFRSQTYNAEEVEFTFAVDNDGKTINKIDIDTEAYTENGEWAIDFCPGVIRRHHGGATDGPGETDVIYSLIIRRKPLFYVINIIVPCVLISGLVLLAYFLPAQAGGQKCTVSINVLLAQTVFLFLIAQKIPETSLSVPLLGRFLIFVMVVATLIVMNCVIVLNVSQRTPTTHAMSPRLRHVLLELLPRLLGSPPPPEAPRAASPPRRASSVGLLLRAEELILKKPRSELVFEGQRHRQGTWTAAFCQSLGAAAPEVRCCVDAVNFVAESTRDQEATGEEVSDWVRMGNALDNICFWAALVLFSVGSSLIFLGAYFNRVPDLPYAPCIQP
Chain of omega-agatoxin IVA-sensitive (P/Q-type) Ca^2+ channel (P54282 whole entry): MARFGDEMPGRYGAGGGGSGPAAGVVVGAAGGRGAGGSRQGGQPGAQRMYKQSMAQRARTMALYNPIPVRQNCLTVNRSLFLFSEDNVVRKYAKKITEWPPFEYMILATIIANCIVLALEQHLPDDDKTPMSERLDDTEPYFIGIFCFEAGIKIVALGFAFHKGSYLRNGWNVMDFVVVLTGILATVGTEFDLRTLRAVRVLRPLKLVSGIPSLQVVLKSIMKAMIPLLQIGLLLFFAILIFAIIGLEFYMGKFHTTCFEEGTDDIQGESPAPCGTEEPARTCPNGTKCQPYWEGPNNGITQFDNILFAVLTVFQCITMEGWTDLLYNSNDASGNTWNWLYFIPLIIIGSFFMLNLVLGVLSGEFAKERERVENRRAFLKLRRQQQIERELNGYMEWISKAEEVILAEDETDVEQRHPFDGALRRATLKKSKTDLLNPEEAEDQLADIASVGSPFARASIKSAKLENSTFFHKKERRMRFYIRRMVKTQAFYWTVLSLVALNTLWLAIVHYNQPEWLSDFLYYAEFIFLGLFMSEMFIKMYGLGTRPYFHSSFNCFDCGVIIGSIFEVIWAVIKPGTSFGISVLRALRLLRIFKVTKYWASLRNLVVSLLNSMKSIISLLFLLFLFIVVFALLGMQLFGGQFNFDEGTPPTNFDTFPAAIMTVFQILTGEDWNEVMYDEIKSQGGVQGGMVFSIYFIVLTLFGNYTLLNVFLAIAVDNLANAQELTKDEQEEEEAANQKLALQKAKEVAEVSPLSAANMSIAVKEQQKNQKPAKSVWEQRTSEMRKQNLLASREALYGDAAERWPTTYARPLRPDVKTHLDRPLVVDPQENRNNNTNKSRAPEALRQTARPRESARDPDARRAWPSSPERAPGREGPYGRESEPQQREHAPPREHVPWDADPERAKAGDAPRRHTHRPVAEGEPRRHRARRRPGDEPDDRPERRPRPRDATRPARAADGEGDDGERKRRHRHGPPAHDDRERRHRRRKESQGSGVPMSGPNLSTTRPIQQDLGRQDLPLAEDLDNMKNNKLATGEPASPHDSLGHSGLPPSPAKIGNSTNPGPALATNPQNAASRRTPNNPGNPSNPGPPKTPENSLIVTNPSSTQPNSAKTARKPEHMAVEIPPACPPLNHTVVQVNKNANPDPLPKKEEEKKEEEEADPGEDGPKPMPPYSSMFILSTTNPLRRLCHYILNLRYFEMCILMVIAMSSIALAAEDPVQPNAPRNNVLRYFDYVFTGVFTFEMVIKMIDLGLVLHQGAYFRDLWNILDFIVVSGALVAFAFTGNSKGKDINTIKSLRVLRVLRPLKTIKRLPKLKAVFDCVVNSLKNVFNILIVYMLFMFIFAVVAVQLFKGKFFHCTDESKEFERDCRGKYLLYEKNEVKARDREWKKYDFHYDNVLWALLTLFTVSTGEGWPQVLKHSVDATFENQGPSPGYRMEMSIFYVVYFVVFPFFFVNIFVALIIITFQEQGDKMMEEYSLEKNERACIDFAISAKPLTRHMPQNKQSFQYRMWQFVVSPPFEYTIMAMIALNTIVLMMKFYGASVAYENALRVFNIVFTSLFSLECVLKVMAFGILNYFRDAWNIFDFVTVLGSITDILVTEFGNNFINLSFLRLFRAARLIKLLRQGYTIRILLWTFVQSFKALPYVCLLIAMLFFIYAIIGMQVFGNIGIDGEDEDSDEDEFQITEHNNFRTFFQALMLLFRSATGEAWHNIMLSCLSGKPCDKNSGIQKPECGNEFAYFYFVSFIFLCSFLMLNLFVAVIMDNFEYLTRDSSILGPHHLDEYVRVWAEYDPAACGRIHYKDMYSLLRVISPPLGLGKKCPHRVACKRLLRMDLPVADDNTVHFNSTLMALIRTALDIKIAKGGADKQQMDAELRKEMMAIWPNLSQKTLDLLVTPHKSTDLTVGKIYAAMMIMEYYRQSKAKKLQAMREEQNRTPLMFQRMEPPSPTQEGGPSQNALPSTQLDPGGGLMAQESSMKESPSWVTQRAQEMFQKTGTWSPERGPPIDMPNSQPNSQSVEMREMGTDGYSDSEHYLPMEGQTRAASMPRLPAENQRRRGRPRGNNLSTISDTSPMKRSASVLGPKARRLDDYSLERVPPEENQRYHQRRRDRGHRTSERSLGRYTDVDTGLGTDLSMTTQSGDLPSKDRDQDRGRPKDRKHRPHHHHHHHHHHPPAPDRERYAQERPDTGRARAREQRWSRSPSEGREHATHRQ

santalol
decrease of papilloma incidence (skin papillomas): 67%
decrease of papilloma multiplicity (skin papillomas): 96%
decrease of TPA-induced ODC activity [1]: 70%

Nc1nc2c(ncn2COCCO)c(=O)[nH]1 [Acyclovir]
reduction of healing time / duration of cold sores (cold sores): up to ½

CC1=CCC[C@]2(C)CC[C@@H](C(C)(C)O)C[C@@H]12 [α-eudesmol]
inhibition of neurogenic inflammation (neurogenic inflammation): potently inhibits
inhibition of P/Q-type Ca2+ channel [2]: potently inhibits

C=C1CCC[C@]2(C)CC[C@@H](C(C)(C)O)C[C@@H]12 [β-eudesmol]
phosphorylation of ERK ½ induced by bFGF or vascular endothelial growth factor [3]: blocked
block of nicotinic ACh receptor channel [4]: blocked the nicotinic ACh receptor channel in both the open and closed conformations
desensitization of the nicotinic ACh receptor [4]: accelerated the desensitization
neurite extension (PC-12 cells; 100 and 150 μM): significantly induced neurite extension
[3H]thymidine incorporation (PC-12 cells; at the highest concentration (150 μM)): suppression
angiogenesis in subcutaneously implanted Matrigel plugs and in adjuvant-induced granuloma (angiogenesis): significantly inhibited
inhibition of Na+,K+-ATPase activity (Na^+, K(+)-ATPase): most strongly
HUVEC migration stimulated by bFGF [5]: inhibited
tube formation by HUVEC in Matrigel [5]: inhibited
proliferation ([5]; 50-100 microM): inhibited
proliferation [6]: inhibited
